Laboratory results reported in patent publication US7105558B2, “Gastrin and cholecystokinin receptor lignads (iv)” (The James Black Foundation Limited, priority 2000, dated 2006).

Each compound was assayed against T1, gastrin (CCK2) receptors (Rattus norvegicus, UniProt P30553) (assay: immature rat stomach assay for gastrin (CCK2) antagonist activity (pentagastrin-stimulated acid secretion)). Details: isolated immature rat stomach, antagonism of pentagastrin dose-response curves, 60 min incubation; tested as N-methyl D-glucamine salts.
T1 construct: The stomach was excised and flushed with ca. 1 ml of unbuffered physiological saline solution; from tissue; host or cells: isolated whole stomach of immature rats (33-50 g, ca. 21 days old)
T1 sequence (P30553 1-452): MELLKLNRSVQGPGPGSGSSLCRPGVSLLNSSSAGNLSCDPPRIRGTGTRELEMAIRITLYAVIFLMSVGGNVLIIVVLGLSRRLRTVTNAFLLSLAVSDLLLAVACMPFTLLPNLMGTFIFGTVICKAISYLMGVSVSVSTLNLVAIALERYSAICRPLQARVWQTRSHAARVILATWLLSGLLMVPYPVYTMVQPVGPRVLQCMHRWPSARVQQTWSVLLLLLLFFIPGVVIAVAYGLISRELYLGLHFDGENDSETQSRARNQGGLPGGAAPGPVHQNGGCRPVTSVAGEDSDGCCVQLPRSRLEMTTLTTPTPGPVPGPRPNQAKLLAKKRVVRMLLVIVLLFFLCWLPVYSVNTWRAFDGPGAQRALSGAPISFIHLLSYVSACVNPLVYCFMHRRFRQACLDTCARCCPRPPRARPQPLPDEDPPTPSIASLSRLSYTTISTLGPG
Description: The compounds of the examples were tested for gastrin (CCK2) antagonist activity in an immature rat stomach assay. The procedure was as follows:
The oesophagus of immature rats (33-50 g, ca. 21 days old) was ligated at the level of the cardiac sphincter and the duodenal sphincter was cannulated. The stomach was excised and flushed with ca. 1 ml of unbuffered physiological saline solution. The fundus was punctured and cannulated. A further 4-5 ml of unbuffered solution was flushed through the stomach to ensure the preparation was not leaking. The stomach was lowered into a jacketed organ bath containing 40 ml of buffered solution containing 3×10^−8 M 5-methylfurmethide, maintained at 37° and gassed vigorously with 95% O2/5% CO2. The stomach was continuously perfused at a rate of 1 ml min^−1 with unbuffered solution gassed with 100% O2 with the perfusate passing over an internally referenced pH-electrode fixed 12 cm above the stomach.
After 120 min of stabilisation the drugs were added directly to the serosal solution in the organ bath and after a further 60 min cumulative pentagastrin dose-response curves were started. Changes in acid secretion were monitored and the curves analysed according to Black et al, Br. J. Pharmacol., 1985, 86, 581.
`O=C(O)c1cccc(NC(=O)c2nn(C3CC4CCC3C4)nc2COC23CC4CC(CC(C4)C2)C3)c1` (stereo not drawn) [Example 11, Endo-3-[[5-(Adamantan-1-yloxymethyl)-2-bicyclo[2.2.1]hept-2-yl-2H-[1,2,3]triazole-4-carbonyl]-amino]-benzoic acid] was tested, and the “Rat stomach pKB” value was 8.37 ± 0.22.
In the case of `O=C(O)c1cccc(NC(=O)c2nn(C3C4CC5CC(C4)CC3C5)nc2COC23CC4CC(CC(C4)C2)C3)c1` (stereo not drawn) [Example 16, 3-[[2-Adamantan-2-yl-5-(Adamantan-1-yloxymethyl)-2H-[1,2,3]triazole-4-carbonyl]-amino]-benzoic acid.], the “Rat stomach pKB” value is reported as 6.82 ± 0.17.
With `O=C(O)c1cccc(NC(=O)c2nn[nH]c2COC23CC4CC(CC(C4)C2)C3)c1` [Example 24, 3-[[5-(Adamantan-1-yloxymethyl)-1/2/3H-[1,2,3]triazole-4-carbonyl]-amino]-benzoic acid] the “Rat stomach pKB” value was 5.65 ± 0.33.

Same assay, conditions: isolated immature rat stomach, antagonism of pentagastrin dose-response curves, 60 min incubation; tested as N-methyl D-glucamine salts; read-out: Rat stomach pKB (converted)
With `Cc1ccccc1-n1nc(COC23CC4CC(CC(C4)C2)C3)c(C(=O)Nc2cccc(C(=O)O)c2)n1` [Example 1, 3-[[5-(Adamantan-1-yloxymethyl)-2-(2-methyl-phenyl)-2H-[1,2,3]triazole-4-carbonyl]-amino]-benzoic acid] the Kb was 43.7 nM.
`O=C(O)c1cccc(NC(=O)c2nn(C3CCCCC3)nc2COC23CC4CC(CC(C4)C2)C3)c1` [Example 2, 3-[[5-(Adamantan-1-yloxymethyl)-2-cyclohexyl-2H-[1,2,3]triazole-4-carbonyl]-amino]-benzoic acid] gave a Kb of 47.9 nM.
`O=C(O)c1cccc(NC(=O)c2nn(-c3c(Cl)cccc3Cl)nc2COC23CC4CC(CC(C4)C2)C3)c1` [Example 3, 3-[[5-(Adamantan-1-yloxymethyl)-2-(2,6-dichlorophenyl)-2H-[1,2,3]triazole-4-carbonyl]-amino]-benzoic acid] showed a Kb of 13.2 nM.
`O=C(O)c1cccc(NC(=O)c2nn(-c3c(Cl)cc(Cl)cc3Cl)nc2COC23CC4CC(CC(C4)C2)C3)c1` [Example 4, 3-[[5-(Adamantan-1-yloxymethyl)-2-(2,4,6-trichlorophenyl)-2H-[1,2,3]triazole-4-carbonyl]-amino]-benzoic acid] gave a Kb of 191 nM.
In the case of `O=C(O)c1cccc(NC(=O)c2nn(-c3ccccc3Cl)nc2COC23CC4CC(CC(C4)C2)C3)c1` [Example 5, 3-[[5-(Adamantan-1-yloxymethyl)-2-(2-chloro-phenyl)-2H-[1,2,3]triazole-4-carbonyl]-amino]-benzoic acid], the Kb is reported as 30.9 nM.
In the case of `O=C(O)c1cccc(NC(=O)c2nnn(-c3ccccc3Cl)c2COC23CC4CC(CC(C4)C2)C3)c1` [Example 6, 3-[[5-(Adamantan-1-yloxymethyl)-1-(2-chloro-phenyl)-1H-[1,2,3]triazole-4-carbonyl]-amino]-benzoic acid], the Kb is reported as 93.3 nM.
`O=C(O)c1cccc(NC(=O)c2nn(-c3ccccc3C(F)(F)F)nc2COC23CC4CC(CC(C4)C2)C3)c1` [Example 7, 3-[[5-(Adamantan-1-yloxymethyl)-2-(2-trifluoromethyl-phenyl)-2H-[1,2,3]triazole-4-carbonyl]-amino]-benzoic acid] was tested, and the Kb was 67.6 nM.
`CCc1ccccc1-n1nc(COC23CC4CC(CC(C4)C2)C3)c(C(=O)Nc2cccc(C(=O)O)c2)n1` [Example 8, 3-[[5-(Adamantan-1-yloxymethyl)-2-(2-ethyl-phenyl)-2H-[1,2,3]triazole-4-carbonyl]-amino]-benzoic acid] was tested, and the Kb was 24 nM.
With `CC(C)(C)n1nc(COC23CC4CC(CC(C4)C2)C3)c(C(=O)Nc2cccc(C(=O)O)c2)n1` [Example 9, 3-[[5-(Adamantan-1-yloxymethyl)-2-tert-butyl-2H-[1,2,3]triazole-4-carbonyl]-amino]-benzoic acid] the Kb was 631 nM.
`COc1ccccc1-n1nc(COC23CC4CC(CC(C4)C2)C3)c(C(=O)Nc2cccc(C(=O)O)c2)n1` [Example 10, 3-[[5-(Adamantan-1-yloxymethyl)-2-(2-methoxy-phenyl)-2H-[1,2,3]triazole-4-carbonyl]amino]-benzoic acid] showed a Kb of 41.7 nM.
`O=C(O)c1cccc(NC(=O)c2nn(-c3ccccc3F)nc2COC23CC4CC(CC(C4)C2)C3)c1` [Example 12, 3-[[5-(Adamantan-1-yloxymethyl)-2-(2-fluoro-phenyl)-2H-[1,2,3]triazole-4-carbonyl]-amino]-benzoic acid] was tested, and the Kb was 174 nM.
With `O=C(O)c1cccc(NC(=O)c2nn(-c3ccccc3Br)nc2COC23CC4CC(CC(C4)C2)C3)c1` [Example 13, 3-[[5-(Adamantan-1-yloxymethyl)-2-(2-bromo-phenyl)-2H-[1,2,3]triazole-4-carbonyl]-amino]-benzoic acid] the Kb was 95.5 nM.
`O=C(O)c1cccc(NC(=O)c2nnn(-c3ccccc3Br)c2COC23CC4CC(CC(C4)C2)C3)c1` [Example 14, 3-[[5-(Adamantan-1-yloxymethyl)-1-(2-bromo-phenyl)-1H-[1,2,3]triazole-4-carbonyl]-amino]-benzoic acid] showed a Kb of 229 nM.
With `O=C(O)c1cccc(NC(=O)c2nn(C3CCCCCC3)nc2COC23CC4CC(CC(C4)C2)C3)c1` [Example 15, 3-[[5-(Adamantan-1-yloxymethyl)-2-cycloheptyl-2H-[1,2,3]triazole-4-carbonyl]-amino]-benzoic acid] the Kb was 13.5 nM.
`CC(C)c1ccccc1-n1nc(COC23CC4CC(CC(C4)C2)C3)c(C(=O)Nc2cccc(C(=O)O)c2)n1` [Example 17, 3-[[5-(Adamantan-1-yloxymethyl)-2-(2-isopropyl-phenyl)-2H-[1,2,3]triazole-4-carbonyl]-amino]-benzoic acid] was tested, and the Kb was 263 nM.
In the case of `O=C(O)c1cccc(NC(=O)c2nn(-c3cccc4ccccc34)nc2COC23CC4CC(CC(C4)C2)C3)c1` [Example 18, 3-[[5-(Adamantan-1-yloxymethyl)-2-naphthalen-1-yl-2H-[1,2,3]triazole-4-carbonyl]-amino]-benzoic acid], the Kb is reported as 1510 nM.
`Cc1cccc(-n2nc(COC34CC5CC(CC(C5)C3)C4)c(C(=O)Nc3cccc(C(=O)O)c3)n2)c1C` [Example 19, 3-[[5-(Adamantan-1-yloxymethyl)-2-(2,3-dimethyl-phenyl)-2H-[1,2,3]triazole-4-carbonyl]-amino]-benzoic acid] showed a Kb of 74.1 nM.
`O=C(O)c1cccc(NC(=O)c2nn(-c3ccccc3)nc2COC23CC4CC(CC(C4)C2)C3)c1` [Example 20, 3-[[5-(Adamantan-1-yloxymethyl)-2-phenyl-2H-[1,2,3]triazole-4-carbonyl]-amino]-benzoic acid] gave a Kb of 2090 nM.
For `O=C(O)c1cccc(NC(=O)c2nn(-c3ccccc3-c3ccccc3)nc2COC23CC4CC(CC(C4)C2)C3)c1` [Example 21, 3-[[5-(Adamantan-1-yloxymethyl)-2-(biphenyl-2-yl)-2H-[1,2,3]triazole-4-carbonyl]-amino]-benzoic acid], the Kb was 240 nM.
`Cc1ccc(C)c(-n2nc(COC34CC5CC(CC(C5)C3)C4)c(C(=O)Nc3cccc(C(=O)O)c3)n2)c1` [Example 22, 3-[[5-(Adamantan-1-yloxymethyl)-2-(2,5-dimethyl-phenyl)-2H-[1,2,3]triazole-4-carbonyl]-amino]-benzoic acid] gave a Kb of 282 nM.
Work on `O=C(O)c1cccc(NC(=O)c2nn(-c3cc(Cl)ccc3Cl)nc2COC23CC4CC(CC(C4)C2)C3)c1` [Example 23, 3-[[5-(Adamantan-1-yloxymethyl)-2-(2,5-dichloro-phenyl)-2H-[1,2,3]triazole-4-carbonyl]-amino]-benzoic acid] yielded a Kb of 151 nM.
